In publication PMC10644346, “Shotgun Kinetic Target-Guided Synthesis Approach Enables the Discovery of Small-Molecule Inhibitors against Pathogenic Free-Living Amoeba Glucokinases” (ACS Infectious Diseases, 2023):

What was measured:
N. fowleri = tested on: N. fowleri; set-up: method as in PMID 30783001; conditions: media containing the glycolytic inhibitor; cited from earlier work
[1] = target: T1, BmGlck (Balamuthia mandrillaris glucokinase) (Balamuthia mandrillaris, UniProt Z9NIO0WF95); set-up: method as in PMID 35604214; conditions: cited from earlier work
[2] = target: T2, AcGlck (Acanthamoeba castellanii glucokinase) (Acanthamoeba castellanii, UniProt L8GT25); set-up: method as in PMID 35604214; conditions: cited from earlier work
T2 sequence (L8GT25 entry or part of it): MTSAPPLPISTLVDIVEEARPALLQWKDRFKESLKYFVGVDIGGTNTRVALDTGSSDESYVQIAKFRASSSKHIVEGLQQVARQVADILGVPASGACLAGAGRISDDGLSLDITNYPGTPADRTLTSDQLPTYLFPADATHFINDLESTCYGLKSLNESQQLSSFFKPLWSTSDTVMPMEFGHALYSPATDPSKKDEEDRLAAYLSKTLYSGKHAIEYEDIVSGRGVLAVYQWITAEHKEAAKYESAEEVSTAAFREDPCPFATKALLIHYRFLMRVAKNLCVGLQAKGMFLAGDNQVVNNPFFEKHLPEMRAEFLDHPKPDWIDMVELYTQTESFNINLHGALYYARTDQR

[3] = target: T3, NfGlck (Naegleria fowleri glucokinase) (Naegleria fowleri, UniProt A0A384E136); set-up: method as in PMID 35604214; conditions: cited from earlier work; for selectivity over the human variant (HsGlck): NfGlck vs HsGlck; for NfGlck IC50: previously identified NfGlck inhibitors
T3 sequence (A0A384E136 entry or part of it): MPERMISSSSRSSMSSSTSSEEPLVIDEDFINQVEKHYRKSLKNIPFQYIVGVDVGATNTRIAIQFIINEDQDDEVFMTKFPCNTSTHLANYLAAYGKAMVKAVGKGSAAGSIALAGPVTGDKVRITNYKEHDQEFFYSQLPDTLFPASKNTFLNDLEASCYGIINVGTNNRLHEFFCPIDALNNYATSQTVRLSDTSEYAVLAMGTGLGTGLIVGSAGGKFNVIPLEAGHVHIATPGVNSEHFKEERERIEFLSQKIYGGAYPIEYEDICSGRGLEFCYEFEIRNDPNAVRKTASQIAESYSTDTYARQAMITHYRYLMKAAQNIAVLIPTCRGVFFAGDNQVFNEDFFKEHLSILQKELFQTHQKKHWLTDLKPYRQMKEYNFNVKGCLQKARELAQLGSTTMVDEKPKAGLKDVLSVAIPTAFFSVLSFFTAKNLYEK

[4] = target: T3, NfGlck (Naegleria fowleri glucokinase); assay: Glucokinase assay (G6PDH-coupled reaction, absorbance at 340 nm), NfGlck; type: biochemical; conditions: for IC50: 10 nM enzyme, 15 min preincubation, pH 7.4, triplicate
Procedure: (§1) The open reading frames of NfGlck, AcGlck, and BmGlck were cloned into pQE30, transformed into M15(pREP) Escherichia coli (Qiagen, Valencia, CA), and expressed as previously described.[48],[54] Briefly, E. coli M15(pREP4) harboring pQE30 constructs were inoculated and grown to an optical density at 600 nm (OD600) of ∼0.6 prior to induction with 500 μM isopropyl β-D-1-thiogalactopyranoside (IPTG). Protein from bacterial lysate was purified by nickel column chromatography (HisTrap FF; GE Healthcare Life Sciences, Pittsburgh, PA) followed by ion-exchange chromatography (HiTrap Q XL; GE Healthcare Life Sciences, Pittsburgh, PA). Protein was typically stored in 25 mM HEPES–Na (pH 7.4), 150 mM NaCl, and 50% glycerol after protein concentrations were determined by using a Bradford assay with bovine serum albumin (BSA) as a standard.
(§2) Enzyme activities were measured in triplicate using a coupled reaction described previously.[54] In a clear 96-well plate, enzyme (HsGlck, NfGlck, AcGlck, or BmGlck, all at 10 nM) was incubated with potential inhibitors (in DMSO) in their optimized assay buffer for 15 min at room temperature. For HsGlck and NfGlck, the assay buffer contained 50 mM TEA and 3.3 mM MgCl2, pH 7.4. For AcGlck and BmGlck, the assay buffer contained 50 mM Tris-HCl and 3.3 mM MgCl2, pH 8. Substrate buffer (425 μM glucose, 2.5 mM ATP, 1 U/mL G6PDH, and 0.75 mM NADP^+) was added to each well to start the reaction for a total reaction volume of 200 μL. Immediately after addition, absorbance was measured at 340 nm at 15 s intervals for 2 min by using a BioTek Synergy H1 microplate reader (BioTek, Winooski, VT). Dose–response analysis and IC50 values were performed by using Prism 9.0 (GraphPad software, San Diego, CA). As a control, enzyme activity in inhibitor solvent (DMSO) was included in every assay. To solve the mode of inhibition, NfGlck activity was measured with increasing substrate concentrations (0–1.25 mM) of glucose in the presence or absence of different inhibitor concentrations (0–10 μM) in technical triplicates. Data were then analyzed, and statistical analyses were performed by extra sum-of-squares F test to compare two models of inhibition. […] All statistical analyses were performed using Prism 9 software.

[5] = target: T4, HsGlck (human glucokinase) (Homo sapiens, UniProt P35557); assay: Glucokinase assay (G6PDH-coupled reaction, absorbance at 340 nm), HsGlck; type: biochemical; conditions: 10 nM enzyme, 15 min preincubation, pH 7.4, triplicate
T4 sequence (P35557 1-465): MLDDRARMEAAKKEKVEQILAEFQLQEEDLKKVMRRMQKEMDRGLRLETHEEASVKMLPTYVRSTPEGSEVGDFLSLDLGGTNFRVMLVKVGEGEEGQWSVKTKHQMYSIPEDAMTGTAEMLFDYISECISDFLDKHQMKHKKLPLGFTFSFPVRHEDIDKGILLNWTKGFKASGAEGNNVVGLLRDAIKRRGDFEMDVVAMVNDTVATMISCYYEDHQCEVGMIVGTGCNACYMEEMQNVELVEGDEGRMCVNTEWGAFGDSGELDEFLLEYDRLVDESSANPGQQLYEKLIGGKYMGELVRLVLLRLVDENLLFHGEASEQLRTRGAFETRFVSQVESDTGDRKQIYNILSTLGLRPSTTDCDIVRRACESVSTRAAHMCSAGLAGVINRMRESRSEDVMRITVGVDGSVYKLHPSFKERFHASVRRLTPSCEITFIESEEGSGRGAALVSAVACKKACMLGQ
Procedure: as §2

[6] = target: T1, BmGlck (Balamuthia mandrillaris glucokinase); assay: Glucokinase assay (G6PDH-coupled reaction, absorbance at 340 nm), BmGlck; type: biochemical; conditions: 10 nM enzyme, 15 min preincubation, pH 8, triplicate
Procedure: as §1, §2

[7] = target: T2, AcGlck (Acanthamoeba castellanii glucokinase); assay: Glucokinase assay (G6PDH-coupled reaction, absorbance at 340 nm), AcGlck; type: biochemical; conditions: 10 nM enzyme, 15 min preincubation, pH 8, triplicate
Procedure: as §1, §2

Row | SMILES | IC50 [4] | IC50 [5] | IC50 [6] | IC50 [7] | selectivity for NfGlck over HsGlck ([4]; NfGlck vs HsGlck IC50) | effect on N. fowleri cellular growth (N. fowleri) | activity against BmGlck [1] | activity against AcGlck [2] | selectivity over the human variant (HsGlck) [3] | NfGlck IC50 [3]
1 | O=C(O)C(=O)CBr [3-bromopyruvate] |  |  |  |  |  | decrease in cellular growth |  |  |  | 
2 | N=C(N)Nc1ccc(-c2ccc(-c3ccc(N=C(N)N)c(Cl)c3)o2)cc1Cl [MMV688271] |  |  |  |  |  |  | not active | not active | lacked significant selectivity | submicromolar
3 | O=c1c2ccccc2[se]n1-c1ccccc1 [SID856002, ebselen] |  |  |  |  |  |  |  |  | lacked significant selectivity | submicromolar
4 | Cn1cc(C(=O)NS(=O)(=O)CCN(CSCc2ccccc2)Cc2ccc3c(c2)OCO3)c2cc(-c3ccc(S(C)(=O)=O)cc3)ccc21 [SZ28TA26] | > 10 µM | > 10 µM | 4.77 ± 1 µM | 4.35 ± 0.31 µM |  |  |  |  |  | 
5 | O=C(NS(=O)(=O)CCN(CSCc1ccccc1)Cc1ccc2c(c1)OCO2)c1ccc2c(ccn2Cc2ccc(C(F)(F)F)cc2C(F)(F)F)c1 [SZ28TA30] | > 10 µM | > 10 µM | 1.68 ± 0.05 µM | > 10 µM |  |  |  |  |  | 
6 | Cn1cc(C(=O)c2cccs2)c2cc(C(=O)NS(=O)(=O)c3ccc(-c4ccc(Oc5ccccc5)cc4)cc3)ccc21 [SZ35TA45] | > 10 µM | > 10 µM | 1.92 ± 0.13 µM | 3.3 ± 1.3 µM |  |  |  |  |  | 

More lines, main results first:

Row | IC50 [4] | IC50 [5] | IC50 [6] | IC50 [7] | selectivity for NfGlck over HsGlck ([4]; NfGlck vs HsGlck IC50) | SMILES | effect on N. fowleri cellular growth (N. fowleri) | activity against BmGlck [1] | activity against AcGlck [2] | selectivity over the human variant (HsGlck) [3] | NfGlck IC50 [3]
7 | > 10 µM | > 10 µM | > 10 µM | 11.6 ± 9.2 µM |  | COc1cc(OC)cc(C(=O)NS(=O)(=O)c2ccc(CN3CCN(c4ccccc4)CC3)cc2)c1 [SZ1TA5] |  |  |  |  | 
8 | > 10 µM | > 10 µM | 3 ± 0.54 µM | > 10 µM |  | O=C(NS(=O)(=O)c1ccc(-c2ccc(C(F)(F)F)cc2)cc1)c1ccc2oc(-c3ccccc3)cc2c1 [SZ16TA41] |  |  |  |  | 
9 | > 10 µM | > 10 µM | 7.22 ± 0.28 µM | 3.09 ± 0.66 µM |  | O=C(NS(=O)(=O)CCN(CSCc1ccccc1)Cc1ccc2c(c1)OCO2)c1ccc2oc(-c3ccccc3)cc2c1 [SZ28TA41] |  |  |  |  | 
10 | > 10 µM | > 10 µM | 1.48 ± 0.13 µM | 4.4 ± 0.4 µM |  | O=C(NS(=O)(=O)c1ccc(-c2ccc3c(c2)OCCO3)cc1)c1ccc2c(ccn2Cc2ccc(C(F)(F)F)cc2C(F)(F)F)c1 [SZ33TA30] |  |  |  |  | 
11 | 10.9 ± 2 µM | 10.6 ± 0.45 µM | > 10 µM | > 10 µM |  | Cn1cc(C(=O)c2cccs2)c2cc(C(=O)NS(=O)(=O)c3ccc(-c4ccc5c(c4)OCCO5)cc3)ccc21 [SZ33TA45] |  |  |  |  | 
12 | > 10 µM | > 10 µM | > 10 µM | 6.9 µM |  | CCOc1ccc(-c2ccc3c(c2)c(C(=O)NS(=O)(=O)c2ccc(-c4ccc(Oc5ccccc5)cc4)cc2)cn3C)cc1F [SZ35TA23] |  |  |  |  | 
13 | 1.9 ± 1.1 µM | 8.5 ± 0.37 µM | 0.33 ± 0.05 µM | 0.21 ± 0.04 µM | slight selectivity | O=C(NS(=O)(=O)c1ccc(-c2ccc(Oc3ccccc3)cc2)cc1)c1ccc2c(ccn2Cc2ccc(C(F)(F)F)cc2C(F)(F)F)c1 [SZ35TA30] |  |  |  |  | 
14 | > 10 µM | > 10 µM | 1.19 ± 0.29 µM | 1.6 ± 0.1 µM |  | O=C(NS(=O)(=O)c1ccc(-c2ccc(Oc3ccccc3)cc2)cc1)c1ccc2oc(-c3ccccc3)cc2c1 [SZ35TA41] |  |  |  |  | 
15 | > 10 µM | > 10 µM | 4.83 ± 0.76 µM | 5.1 ± 0.5 µM |  | COc1ccccc1-c1ccc(C(=O)NS(=O)(=O)c2ccc(-c3cc4ccccc4s3)cc2)cc1 [SZ37TA21] |  |  |  |  | 
